Data taken from article PMC9950205, “Efficacy, safety, and pharmacokinetics of teduglutide in adult Japanese patients with short bowel syndrome and intestinal failure: two phase III studies with an extension” (Surgery Today, 2022).

Tested on: adult Japanese patients with SBS-IF
Assay: Safety: treatment-emergent adverse events (TEAEs, TESAEs)
Assay type: in vivo
Source text: Safety analyses included the monitoring of adverse events (AEs), body weight, BMI, vital signs, 12-lead electrocardiogram (ECG), serum biochemistry, hematology, and presence of antibodies to teduglutide. AEs were coded using the Medical Dictionary for Regulatory Activities versions 17.1 (TED-C14-004) and 21.0 (SHP633-306 and SHP633-307). Specifically, AEs were treatment-emergent AEs (TEAEs), defined as any unfavorable and unintended sign (including any abnormal laboratory finding), symptom, or disease that occurred during treatment with teduglutide, whether or not the event was considered to be related to the study drug by the clinical study investigator. AEs were also categorized as mild, moderate, or severe. […] AEs were considered related to treatment with teduglutide, or its administration, based on the investigator's medical judgment.

[1] = ≤ 24 weeks (SHP633-306 and TED-C14-004), 0.05 mg/kg/day

## CC[C@H](C)[C@H](NC(=O)[C@H](Cc1ccccc1)NC(=O)[C@H](CC(=O)O)NC(=O)[C@H](CCCNC(=N)N)NC(=O)[C@H](C)NC(=O)[C@H](C)NC(=O)[C@H](CC(C)C)NC(=O)[C@H](CC(N)=O)NC(=O)[C@H](CC(=O)O)NC(=O)[C@H](CC(C)C)NC(=O)[C@@H](NC(=O)[C@@H](NC(=O)[C@H](CC(N)=O)NC(=O)[C@H](CCSC)NC(=O)[C@H](CCC(=O)O)NC(=O)[C@H](CC(=O)O)NC(=O)[C@H](CO)NC(=O)[C@H](Cc1ccccc1)NC(=O)[C@H](CO)NC(=O)CNC(=O)[C@H](CC(=O)O)NC(=O)CNC(=O)[C@@H](N)Cc1c[nH]cn1)[C@@H](C)O)[C@@H](C)CC)C(=O)N[C@@H](CC(N)=O)C(=O)N[C@@H](Cc1c[nH]c2ccccc12)C(=O)N[C@@H](CC(C)C)C(=O)N[C@H](C(=O)N[C@@H](CCC(N)=O)C(=O)N[C@H](C(=O)N[C@@H](CCCCN)C(=O)N[C@H](C(=O)N[C@H](C(=O)N[C@@H](CC(=O)O)C(=O)O)[C@@H](C)O)[C@@H](C)CC)[C@@H](C)O)[C@@H](C)CC [teduglutide]
Total, 0.05 mg/kg/day
  Immune system disorders: Events: 2 n
  Immune system disorders: Patients: 2 (11.1) n (%)
  Infections and infestations: Events: 81 n
  Infections and infestations: Patients: 12 (66.7) n (%)
  Influenza: Events: 21 n
  Injection site reaction: Events: 4 n
  Injection site reaction: Patients: 4 (22.2) n (%)
  Injury, poisoning, and procedural complications: Events: 6 n
  Injury, poisoning, and procedural complications: Patients: 5 (27.8) n (%)
  Insomnia: Events: 2 n
  Insomnia: Patients: 2 (11.1) n (%)
  Investigations: Events: 14 n
  Investigations: Patients: 7 (38.9) n (%)
  Metabolism and nutrition disorders: Events: 13 n
  Metabolism and nutrition disorders: Patients: 7 (38.9) n (%)
  Musculoskeletal and connective tissue disorders: Events: 12 n
  Musculoskeletal and connective tissue disorders: Patients: 8 (44.4) n (%)
  Nasopharyngitis: Events: 21 n
  Nasopharyngitis: Patients: 7 (38.9) n (%)
  Nausea: Events: 8 n
  Nausea: Patients: 4 (22.2) n (%)
  Nervous system disorders: Events: 26 n
  Nervous system disorders: Patients: 8 (44.4) n (%)
  Oral herpes: Events: 2 n
  Oral herpes: Patients: 2 (11.1) n (%)
  Oropharyngeal pain: Events: 4 n
  Oropharyngeal pain: Patients: 4 (22.2) n (%)
  Pruritus: Events: 2 n
  Pruritus: Patients: 2 (11.1) n (%)
  Psychiatric disorders: Events: 4 n
  Psychiatric disorders: Patients: 3 (16.7) n (%)
  Pyrexia: Events: 11 n
  Pyrexia: Patients: 8 (44.4) n (%)
  Renal and urinary disorders: Events: 6 n
  Renal and urinary disorders: Patients: 5 (27.8) n (%)
  Respiratory, thoracic, and mediastinal disorders: Events: 13 n
  Respiratory, thoracic, and mediastinal disorders: Patients: 7 (38.9) n (%)
  Skin and subcutaneous tissue disorders: Events: 18 n
  Skin and subcutaneous tissue disorders: Patients: 9 (50.0) n (%)
  Somnolence: Events: 3 n
  Somnolence: Patients: 3 (16.7) n (%)
  Stomatitis: Events: 4 n
  Stomatitis: Patients: 4 (22.2) n (%)
  Upper respiratory tract inflammation: Events: 3 n
  Upper respiratory tract inflammation: Patients: 2 (11.1) n (%)
  Vascular disorders: Events: 6 n
  Vascular disorders: Patients: 4 (22.2) n (%)
  Vascular pain: Events: 3 n
  Vascular pain: Patients: 2 (11.1) n (%)
  Vomiting: Events: 3 n
  Vomiting: Patients: 3 (16.7) n (%)
All studies
  Severity of the majority of all TEAEs: mild or moderate
During any of the studies
  Changes in clinical laboratory measures, vital signs, body weight, BMI, or ECG findings: no clinically meaningful changes
During the studies
  AEs related to growth of pre-existing polyps of the colon or gastrointestinal cancers: no AEs
[1]
  Abdominal distension: Events: 4 n
  Abdominal distension: Patients: 4 (22.2) n (%)
  Abdominal pain: Events: 5 n
  Abdominal pain: Patients: 5 (27.8) n (%)
  Anal abscess: Events: 0 n
  Anal abscess: Patients: 0 n (%)
  Anemia: Events: 2 n
  Anemia: Patients: 2 (11.1) n (%)
  Any TEAE: Events: 121 n
  Any TEAE: Patients: 17 (94.4) n (%)
  Arthralgia: Events: 0 n
  Arthralgia: Patients: 0 n (%)
  Back pain: Events: 1 n
  Back pain: Patients: 1 (5.6) n (%)
  Blood and lymphatic system disorders: Events: 4 n
  Blood and lymphatic system disorders: Patients: 3 (16.7) n (%)
  Catheter site infection: Events: 1 n
  Catheter site infection: Patients: 1 (5.6) n (%)
  Catheter site pain: Events: 1 n
  Catheter site pain: Patients: 1 (5.6) n (%)
  Dehydration: Events: 2 n
  Dehydration: Patients: 2 (11.1) n (%)
  Dermatitis contact: Events: 0 n
  Dermatitis contact: Patients: 0 n (%)
  Device occlusion (central venous catheter for PS): Events: 3 n
  Device occlusion (central venous catheter for PS): Patients: 2 (11.1) n (%)
  Device-related infection (central venous catheter for PS): Events: 9 n
  Device-related infection (central venous catheter for PS): Patients: 6 (33.3) n (%)
  Diarrhea: Events: 1 n
  Diarrhea: Patients: 1 (5.6) n (%)
  Dry skin: Events: 1 n
  Dry skin: Patients: 1 (5.6) n (%)
  Enteritis: Events: 1 n
  Enteritis: Patients: 1 (5.6) n (%)
  Enterocolitis: Events: 2 n
  Enterocolitis: Patients: 1 (5.6) n (%)
  Eye disorder: Events: 2 n
  Eye disorder: Patients: 2 (11.1) n (%)
  Gastrointestinal disorders: Events: 27 n
  Gastrointestinal disorders: Patients: 12 (66.7) n (%)
  General disorders and administration site conditions: Events: 21 n
  General disorders and administration site conditions: Patients: 9 (50.0) n (%)
  Headache: Events: 3 n
  Headache: Patients: 3 (16.7) n (%)
  Hematuria: Events: 1 n
  Hematuria: Patients: 1 (5.6) n (%)
  Hemorrhage subcutaneous: Events: 1 n
  Hemorrhage subcutaneous: Patients: 1 (5.6) n (%)
  Hepatobiliary disorders: Events: 3 n
  Hepatobiliary disorders: Patients: 2 (11.1) n (%)
  Hypersensitivity: Events: 0 n
  Hypersensitivity: Patients: 0 n (%)
  Hypozincemia: Events: 1 n
  Hypozincemia: Patients: 1 (5.6) n (%)
  Immune system disorders: Events: 0 n
  Immune system disorders: Patients: 0 n (%)
  Infections and infestations: Events: 19 n
  Infections and infestations: Patients: 8 (44.4) n (%)
  Influenza: Events: 0 n
  Influenza: Patients: 0 n (%)
  Injection site reaction: Events: 4 n
  Injection site reaction: Patients: 4 (22.2) n (%)
  Injury, poisoning, and procedural complications: Events: 5 n
  Injury, poisoning, and procedural complications: Patients: 4 (22.2) n (%)
  Insomnia: Events: 0 n
  Insomnia: Patients: 0 n (%)
  Investigations: Events: 9 n
  Investigations: Patients: 6 (33.3) n (%)
  Metabolism and nutrition disorders: Events: 6 n
  Metabolism and nutrition disorders: Patients: 4 (22.2) n (%)
  Musculoskeletal and connective tissue disorders: Events: 2 n
  Musculoskeletal and connective tissue disorders: Patients: 2 (11.1) n (%)
  Nasopharyngitis: Events: 3 n
  Nasopharyngitis: Patients: 3 (16.7) n (%)
  Nausea: Events: 1 n
  Nausea: Patients: 1 (5.6) n (%)
  Nervous system disorders: Events: 7 n
  Nervous system disorders: Patients: 4 (22.2) n (%)
  Oral herpes: Events: 1 n
  Oral herpes: Patients: 1 (5.6) n (%)
  Oropharyngeal pain: Events: 1 n
  Oropharyngeal pain: Patients: 1 (5.6) n (%)
  Pruritus: Events: 1 n
  Pruritus: Patients: 1 (5.6) n (%)
  Psychiatric disorders: Events: 0 n
  Psychiatric disorders: Patients: 0 n (%)
  Pyrexia: Events: 6 n
  Pyrexia: Patients: 6 (33.3) n (%)
  Renal and urinary disorders: Events: 2 n
  Renal and urinary disorders: Patients: 2 (11.1) n (%)
  Respiratory, thoracic, and mediastinal disorders: Events: 5 n
  Respiratory, thoracic, and mediastinal disorders: Patients: 5 (27.8) n (%)
  Skin and subcutaneous tissue disorders: Events: 5 n
  Skin and subcutaneous tissue disorders: Patients: 4 (22.2) n (%)
  Somnolence: Events: 0 n
  Somnolence: Patients: 0 n (%)
  Stomatitis: Events: 1 n
  Stomatitis: Patients: 1 (5.6) n (%)
  Upper respiratory tract inflammation: Events: 2 n
  Upper respiratory tract inflammation: Patients: 2 (11.1) n (%)
  Vascular disorders: Events: 2 n
  Vascular disorders: Patients: 2 (11.1) n (%)
  Vascular pain: Events: 0 n
  Vascular pain: Patients: 0 n (%)
  Vomiting: Events: 2 n
  Vomiting: Patients: 2 (11.1) n (%)
